Legend:
lung fibrosis = test: In vivo screening: bleomycin-treated spontaneous hypertensive rats, lung fibrosis quantitated by histomorphometry (Masson Trichrome); conditions: SHR given bleomycin at 14 weeks, 500 pmol/kg/min in drinking solution (5% ethanol) for 4 weeks from 16 weeks of age; for Fibrosis in the lung compared to 16 week controls: vs 16 week control (reversal of established fibrosis); for Fibrosis in the lung compared to 20 week controls: vs 20 week vehicle control (prevention)
Method: Fourteen week old spontaneous hypertensive rats (SHR) were anaesthetised using 3% isoflurane, the tongue was gently pulled forward and bleomycin […] in 200 μL of normal saline placed in the distal oropharynx using a micropipette while the nose is gently closed. Rats were then left to recover from anaesthesia. At 16 weeks of age SHR were randomised to control (16 weeks or 20 weeks) or treated groups. The 16 week controls were anaesthetised and had blood sampled and tissues harvested. The 20 week controls received drinking solution alone (5% ethanol) while the treated groups received test compound dissolved in the drinking water with concentration adjusted twice weekly to maintain a dose of 500 pmol/kg/min for 4 weeks. At 20 weeks of age rats were anaesthetised and had blood sampled and tissues harvested.
For histological examination lungs were fixed in formalin and sections from each of two levels were stained using Masson Trichrome. Fibrosis was quantitated by histomorphometry by an observer blinded to experimental group.

[1] = system: human small airway epithelial cells; test: In vitro screening: xCELLigence SP cellular impedance (cell index); assay type: cell-based; conditions: 10 μM, 20 μM or 30 μM test compound, 0.25% DMSO, measured every 20 seconds for 3 hours
Method: The xCELLigence SP system (Roche) was used to measure changes in cellular impedance (cell index) following the treatment of human small airway epithelial cells (ATCC) with test compound.
Briefly, 50 μl of cell culture medium (DMEM low glucose supplemented with 15% fetal bovine serum at 37° C.) was added to each well of an E-Plate 96 (Roche), and the background impedance in each well was measured. 50 μl of human small airway epithelial cell suspension (10,000 cells/well) was then added to the appropriate wells of the E-Plate 96. Cell index was monitored for each well of the E-Plate 96 in a RTCA SP Station within the cell culture incubator. After overnight incubation for 16-20 hours at 5% CO2 and 95% humidity, 100 μl of test compound solution (test compounds were prepared in DMSO and diluted with cell culture medium to a concentration of 10 μM, 20 μM or 30 μM of test compound with a final DMSO concentration of 0.25%) was added to the appropriate wells of the E-Plate 96 and cell index values were measured immediately following compound treatment every 20 seconds for 3 hours. Cell index value is baseline-corrected by subtracting the cell index of vehicle-treated cells and normalized by dividing by the cell index at the time point immediately before compound addition. Baseline normalized cell index as a function of time is plotted using Roche RTCA software.

Compound | Fibrosis in the lung compared to 16 week controls (lung fibrosis) | Fibrosis in the lung compared to 20 week controls (lung fibrosis) | Cellular impedance (baseline normalized cell index) response [1]
NC(CCc1cc(-c2ccccc2)ccc1-c1cccc(O)c1)C(F)(F)F (stereo not drawn) [A6] | decreased | decreased | Negative impedance responses
O=C1NCCC1Cc1cc(-c2ccccc2)ccc1-c1cccc(O)c1 (stereo not drawn) [A26] | – | – | Negative impedance responses
O=C1NCC/C1=C\c1cc(-c2ccccc2)ccc1-c1cccc(O)c1 [A27] | – | – | Negative impedance responses
O=C1CC(Cc2cc(-c3ccccc3)ccc2-c2cccc(O)c2)C(=O)N1 (stereo not drawn) [A30] | – | – | Negative impedance responses
O=C1NC(=O)C(Cc2cc(-c3ccccc3)ccc2-c2cccc(O)c2)N1 (stereo not drawn) [A32] | decreased | decreased | Negative impedance responses
Nc1nocc1Cc1cc(-c2ccccc2)ccc1-c1cccc(O)c1 [A35] | – | – | Negative impedance responses
NOCCc1cc(-c2ccccc2)ccc1-c1cccc(O)c1 [A56] | – | – | Negative impedance responses
O=C1NC(=O)C(Cc2cc(-c3ccccc3)ccc2-c2cccc(O)c2)O1 (stereo not drawn) [A79] | decreased | decreased | Negative impedance responses
CS(=O)(=O)Nc1cc(NS(C)(=O)=O)cc(-c2ccc(-c3cncnc3)cc2CCC(N)=O)c1 [D4] | – | – | Negative impedance responses
CCOC(=O)C(Cc1cc(-c2cncnc2)ccc1-c1cc(N)ncn1)C(=O)OCC [D5, Diethyl (2-(6-aminopyrimidin-4-yl)-5-(pyrimidin-5-yl)benzyl)propanedioate] | – | – | Negative impedance responses
NC(=O)CCc1cc(-c2cncnc2)ccc1-c1cc(N)ncn1 [D6, 3-(2-(6-Aminopyrimidin-4-yl)-5-(pyrimidin-5-yl)phenyl)propanamide] | decreased | decreased | Negative impedance responses
CS(=O)(=O)Nc1cc(NS(C)(=O)=O)cc(-c2ccc(-c3cccnn3)cc2CCC(N)=O)c1 [D10] | – | – | Negative impedance responses
CS(=O)(=O)Nc1cc(-c2ccc(-c3cccnn3)cc2CCC(N)=O)ccn1 [D11, 3-(2-(2-((Methylsulfonyl)amino)pyridin-4-yl)-5-(pyridazin-3-yl)phenyl)propanamide] | – | – | negative deflection
NC(=O)CCc1cc(-c2cccnn2)ccc1-c1cc(N)ncn1 [D12, 3-(2-(6-Aminopyrimidin-4-yl)-5-(pyridazin-3-yl)phenyl)propanamide] | – | – | Negative impedance responses
CS(=O)(=O)NC1=CC(c2cccc(NS(C)(=O)=O)c2)(c2cnccn2)CC(CCC(N)=O)=C1 (stereo not drawn) [D16, 3-(3′,5-Bis((methylsulfonyl)amino)-1-(pyrazin-2-yl)biphenyl-3-yl)propanamide] | – | – | Negative impedance responses
CS(=O)(=O)Nc1cc(-c2ccc(-c3cnccn3)cc2CCC(N)=O)ccn1 [D17, 3-[2-(2-[(Methylsulfonyl)amino]pyridin-4-yl)-5-(pyrazin-2-yl)phenyl]propanamide] | – | – | Negative impedance responses

Compound | Fibrosis in the lung compared to 16 week controls (lung fibrosis) | Fibrosis in the lung compared to 20 week controls (lung fibrosis) | Cellular impedance (baseline normalized cell index) response [1]
NC(=O)CCc1cc(-c2cnccn2)ccc1-c1cc(N)ncn1 [D18, 3-(2-(6-Aminopyrimidin-4-yl)-5-(pyrazin-2-yl)phenyl)propanamide] | – | – | Negative impedance responses
CS(=O)(=O)Nc1cccc(-c2ccc(-c3cccnc3)cc2CCC(N)=O)c1 [D28, 3-(3′-((Methylsulfonyl)amino)-4-(pyridin-3-yl)biphenyl-2-yl)propanamide] | – | – | Negative impedance responses
NC(=O)CCc1cc(-c2cccnc2)ccc1-c1ccc2[nH]c(=O)[nH]c2c1 [D30, 3-(2-(2-Oxo-2,3-dihydro-1H-benzimidazol-5-yl)-5-(pyridin-3-yl)phenyl)propanamide] | decreased | decreased | Negative impedance responses
CNS(=O)(=O)Nc1cccc(-c2ccc(-c3cccnc3)cc2CCC(N)=O)c1 [D31, 3-(3′-((Methylsulfamoyl)amino)-4-(pyridin-3-yl)biphenyl-2-yl)propanamide] | – | – | Negative impedance responses
Cc1nc(C)c(-c2ccc(-c3cccc(NS(C)(=O)=O)c3)c(CCC(N)=O)c2)s1 [D32, 4-(2,4-Dimethyl-1,3-thiazol-5-yl)-3-(3′-((methylsulfonyl)amino)biphenyl-2-yl)propanamide] | – | – | Negative impedance responses
CS(=O)(=O)Nc1cccc(-c2ccc(-c3ccc(F)cc3)cc2CCC(N)=O)c1 [D35, 3-(4″-Fluoro-3-((methylsulfonyl)amino)-1,1′:4′,1″-terphenyl-2′-yl)propanamide] | – | – | Negative impedance responses
NC(=O)CCc1cc(-c2cccnc2)ccc1-c1cccc(NC(=O)Nc2cccc(-c3ccc(-c4cccnc4)cc3CCC(N)=O)c2)c1 [D167] | – | – | Negative impedance responses
NC(=O)C=Cc1cc(-c2cncnc2)ccc1-c1ccnc(N)c1 [D171, 3-[2-(2-Aminopyridin-4-yl)-5-(pyrimidin-5-yl)phenyl]propenamide] | – | – | Negative impedance responses
NC(=O)C=Cc1cc(-c2cncnc2)ccc1-c1cc(N)cc(N)c1 [D172, 3-(2-(3,5-Diaminophenyl)-5-(pyrimidin-5-yl)phenyl)propenamide] | – | – | Negative impedance responses
NC(=O)CCc1cc(-c2cnccn2)ccc1-c1cccc(O)c1 [P13, 3-[3′-Hydroxy-4-(pyrazin-2-yl)biphenyl-2-yl]propanamide] | – | decreased | Negative impedance responses
NC(=O)CCc1cc(-c2cccnn2)ccc1-c1cccc(O)c1 [P14, 3-[3′-Hydroxy-4-(pyridazin-3-yl)biphenyl-2-yl]propanamide] | – | – | Negative impedance responses
NC(=O)CCc1cc(-c2ccncn2)ccc1-c1cccc(O)c1 [P25, 3-[3′-Hydroxy-4-(pyrimidin-4-yl)biphenyl-2-yl]propanamide] | – | – | Negative impedance responses
Cc1n[nH]c(C)c1-c1ccc(-c2cccc(O)c2)c(CCC(N)=O)c1 [P42] | – | – | Negative impedance responses
Cc1ccsc1-c1ccc(-c2cccc(O)c2)c(CCC(N)=O)c1 [P43] | – | – | Negative impedance responses
Cc1cscc1-c1ccc(-c2cccc(O)c2)c(CCC(N)=O)c1 [P44] | – | – | Negative impedance responses
NC(=O)CCc1cc(-c2ccccc2)ccc1-c1cccc(O)c1 [VB0004] | decreased | decreased | Negative impedance responses
